assay: Log P by HPLC on reversed phase columns (EEC directive 79/831 Annex V.A8); type: physicochemical; details: method [a]: LC-UV, acidic range, 0.1% formic acid in water and acetonitrile
Procedure, shortened: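 Reversed-phase HPLC per EEC 79/831 Annex V.A8, LC-UV with 10→95% acetonitrile linear gradient; eluent [a] 0.1% formic acid (acidic), [b] 0.001 M ammonium acetate (neutral), [c] 0.1% phosphoric acid (acidic). Calibrated with C3–C16 straight-chain alkan-2-ones, linear interpolation of retention times; multiple values joined by "+".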

Row | SMILES | LogP
1 | O=C1CC(NC(=O)c2cc(Br)c(Cl)s2)CN1 (stereo not drawn) [I.0225] | 1.73^[a]
2 | CCC(C)C(NC(=O)c1sc(Br)c(Br)c1F)C(=O)O (stereo not drawn) [I.0235] | 3.40^[a]
3 | CC[C@H](C)[C@H](NC(=O)c1sc(Br)c(Cl)c1C)C(=O)OC [I.0322] | 4.25^[a]
4 | COC(=O)[C@H](Cc1ccccc1)NC(=O)[C@H](CC(=O)O)NC(=O)c1sc(Br)c(Br)c1F [I.0338] | 2.98^[a]
5 | COC(=O)C(Cc1ccccc1)NC(=O)C(CC(=O)O)NC(=O)c1sc(Br)c(Cl)c1C (stereo not drawn) [I.0339] | 3.09^[a]
6 | COC(=O)[C@H](Cc1ccccc1)NC(=O)[C@H](CC(=O)O)NC(=O)c1sc(Cl)c(Br)c1C [I.0340] | 3.13^[a]
7 | COC(=O)C(Cc1ccccc1)NC(=O)C(CC(=O)O)NC(=O)c1sc(Cl)c(Cl)c1Br (stereo not drawn) [I.0487] | 3.23^[a]
8 | COC(=O)[C@H](Cc1ccccc1)NC(=O)[C@H](CC(=O)O)NC(=O)c1sc(Br)c(Br)c1Cl [I.0488] | 3.20^[a]
9 | COC(=O)C(Cc1ccccc1)NC(=O)C(CC(=O)O)NC(=O)c1sc(C#N)c(Br)c1C (stereo not drawn) [I.0501] | 2.70^[a]
10 | O=C(N[C@H]1CCSC1=O)c1sc(Cl)c(Br)c1Cl [I.0525] | 3.28^[a]
11 | CCOC(=O)C(C)(C)NC(=O)C(C)(C)NC(=O)c1sc(Cl)c(Br)c1Br [I.0699] | 3.94^[a]
12 | O=C(NC1CCOC1=O)c1sc(Cl)c(Cl)c1C(F)F (stereo not drawn) [I.0747] | 2.40^[a]
13 | Cc1c(C(=O)N[C@H]2CCOC2=O)sc(C#N)c1Br [I.0761] | 1.94^[a]
14 | Cc1c(C(=O)N[C@H]2CCOC2=O)sc(Cl)c1Br [I.0762] | 2.45^[a]
15 | Cc1c(C(=O)N[C@H]2CCOC2=O)sc(Br)c1Cl [I.0763] | 2.42^[a]

Further lines, results first:

Row | LogP | SMILES
16 | 2.03^[a] | O=C(N[C@H]1CNC1=O)c1sc(Cl)c(Cl)c1Br [I.0808]
17 | 2.02^[a] | N#Cc1c(C(=O)NC2CCOC2=O)sc(Cl)c1Cl (stereo not drawn) [I.0818]
18 | 2.05^[a] | N#Cc1sc(C(=O)NC2CCOC2=O)c(Cl)c1Cl (stereo not drawn) [I.0819]
19 | 2.48^[a] | Cc1c(C(=O)NC2CCOC2=O)sc(Cl)c1Br (stereo not drawn) [I.0820]
20 | 3.46^[a] | Cc1c(C(=O)NC2CCSC2=O)sc(Br)c1Cl (stereo not drawn) [I.0822]
21 | 2.45^[a] | Cc1c(C(=O)NC2CCOC2=O)sc(Br)c1Cl (stereo not drawn) [I.0825]
22 | 2.45^[a] | Cc1c(C(=O)NC2CCSC2=O)sc(C#N)c1Br (stereo not drawn) [I.0829]
23 | 2.63^[a] | O=C(NC1CCOC1=O)c1sc(Cl)c(Cl)c1Br (stereo not drawn) [I.0839]
24 | 2.39^[a] | Cc1c(C(=O)N[C@H]2CCSC2=O)sc(C#N)c1Br [I.0866]
25 | 3.24^[a] | O=C(N[C@H]1CCSC1=O)c1sc(Br)c(Br)c1Cl [I.0867]
26 | 6.46^[a] | N#CC1(NC(=O)c2sc(Br)c(Br)c2Cl)CCC(C2CCCCC2)CC1 (stereo not drawn) [I.0869]
27 | 4.97^[a] | N#CC1(NC(=O)c2sc(Br)c(Br)c2Cl)CCC(c2ccccc2)CC1 (stereo not drawn) [I.0870]

same assay, conditions: method [a]: LC-UV, acidic range, 0.1% formic acid in water and acetonitrile; listed as 1.0821

Row | LogP | SMILES
28 | 3.03^[a] | Cc1c(C(=O)NC2CCSC2=O)sc(Cl)c1Br (stereo not drawn) [I.0821]

same assay, conditions: reversed phase HPLC columns, value in preparation example, method not marked

Row | SMILES | chromatographic logP
29 | O=C(O)CNC(=O)c1sc(Br)c(Br)c1F [I.0227, N-[(4,5-dibromo-3-fluoro-2-thienyl)carbonyl]glycine] | 1.97
30 | CCOC(=O)[C@H](CC(C)C)NC(=O)c1sc(Cl)c(Cl)c1C#N [I.0279, ethyl N-[(4,5-dichloro-3-cyano-2-thienyl)carbonyl]leucinate] | 4.05
31 | CCOC(=O)CNC(=O)c1sc(Br)c(Br)c1F [I.0449, ethyl N-[(4,5-dibromo-3-fluoro-2-thienyl)carbonyl]glycinate] | 2.97

Results, then the compound that gave them:

Row | chromatographic logP | SMILES
32 | 2.54 | CCOC(=O)CNC(=O)c1sc(C)c(Cl)c1F [I.0793, ethyl N-[(4-chloro-3-fluoro-5-methyl-2-thienyl)carbonyl]glycinate]
33 | 1.69 | NC(=O)CNC(=O)c1sc(Br)c(Br)c1F [I.0894, N-(2-amino-2-oxoethyl)-4,5-dibromo-3-fluorothiophene-2-carboxamide]

From US12642270B2, “Substituted thiophene carboxamides, thiophene carboxylic acids and derivatives thereof” (Bayer Aktiengesellschaft, priority 2019, dated 2026)
